The text below walks through data of article PMC10443802, “Targeting a xenobiotic transporter to ameliorate vincristine-induced sensory neuropathy” (JCI Insight, 2023).

Where “and” joins values, the source holds several entries; their conditions need not be identical. Identical values can stand only once.

Series [1] addresses hOAT4 (Homo sapiens, UniProt Q9NSA0). In words: Vincristine uptake screen, HeLa cells overexpressing hOAT4. The format is in vitro ADME. The protocol:
Relative uptake is expressed as percentage change compared with empty vector controls (n = 4–14 per group). […] Human OATP1B1 and OATP1B3 transporter–overexpressed cells were used as positive controls; empty vector controls were used as the negative control. […] Mechanical allodynia (C), thermal hyperalgesia (D), and sciatic nerve maximal action potential amplitudes (E) are expressed as percentage change relative to baseline values (n = 6–8 per group). Statistical analysis was performed using a 2-way ANOVA with Bonferroni’s post hoc test. **P < 0.01, ***P < 0.001, ****P < 0.0001, compared with baseline values. […] Data are shown as mean ± SEM. […]
transfected with transporters of interest, including hOAT1, hOAT3, hOAT4, hOATP1A2, hOATP3A1, hOATP4A1, hOATP5A1, hOATP1C1, hOATP1B1, hOATP1B3, hOATP2B1, hOCT1, hOCT2, hOCTN1, hOCTN2, hASBT, hNTCP, hNPT1, hMATE1, hOSTα/β, hPEPT1, hPEPT2, rOatp1a1, rOatp1a4, rOatp1a5, rOatp1b2, rNtcp, rAsbt, rOat1, and rOct1. Cells were transfected with expression plasmid or vector control lacking any insert using Lipofectin reagent (Invitrogen). […] The cellular radioactivity was quantified by liquid scintillation counting as described above. […]
Samples were analyzed using real-time quantitative PCR and Taqman Probes (Applied Biosystems). The relative gene expression was determined using the ΔΔCt method, and normalized to the mouse or human housekeeping gene, GAPDH. […]

The subject of series [2] is patients with cancer. Conditions: cited from earlier work.

Sequence of hOAT4 (Q9NSA0 whole entry): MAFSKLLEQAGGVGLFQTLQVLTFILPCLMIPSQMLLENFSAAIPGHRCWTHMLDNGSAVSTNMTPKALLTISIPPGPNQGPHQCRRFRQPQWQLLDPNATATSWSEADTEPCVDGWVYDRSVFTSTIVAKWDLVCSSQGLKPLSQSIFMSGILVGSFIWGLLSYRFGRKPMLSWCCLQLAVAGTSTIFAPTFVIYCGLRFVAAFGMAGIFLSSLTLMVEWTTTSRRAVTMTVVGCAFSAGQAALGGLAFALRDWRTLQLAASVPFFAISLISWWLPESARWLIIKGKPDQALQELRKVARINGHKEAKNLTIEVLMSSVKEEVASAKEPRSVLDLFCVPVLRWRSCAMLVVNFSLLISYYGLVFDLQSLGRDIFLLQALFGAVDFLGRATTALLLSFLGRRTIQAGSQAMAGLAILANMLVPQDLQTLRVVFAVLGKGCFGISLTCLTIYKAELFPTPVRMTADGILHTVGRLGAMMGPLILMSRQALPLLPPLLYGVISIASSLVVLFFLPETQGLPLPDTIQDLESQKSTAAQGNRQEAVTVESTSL

For the compound `CC[C@]1(O)C[C@H]2CN(CCc3c([nH]c4ccccc34)[C@@](C(=O)OC)(c3cc4c(cc3OC)N(C=O)[C@H]3[C@@](O)(C(=O)OC)[C@H](OC(C)=O)[C@]5(CC)C=CCN6CC[C@]43[C@@H]65)C2)C1` [Vincristine, vincristine], the “Vincristine uptake (% of vector control)” value in series [1] was 107.00 % of vector control and 81.00 % of vector control and 79.00 % of vector control and 90.00 % of vector control and 80.00 % of vector control and 99.00 % of vector control and 111.00 % of vector control and 113.00 % of vector control. The “Incidence of sensory peripheral neurotoxicity” value in series [2] is reported as “up to 100%”.
